# Results taken from article PMC7353089, “The Hepatotoxicity of Alantolactone and Germacrone: Their Influence on Cholesterol and Lipid Metabolism in Differentiated HepaRG Cells” (Nutrients, 2020).
# Where two headings read alike, the source gives them in different places.
# What was measured:
# dHepaRG cells [1] = test: Lactate dehydrogenase (LDH) leakage; assay type: cell-based, human; settings: dHepaRG cell viability, read-out: IC50 ± SD, LDH
# Procedure: Cryopreserved HepaRG cells were obtained from Biopredic International (Rennes, France). Undifferentiated cells were seeded according to the supplier protocols in 96-well plates for the viability assays, and in 6-well plates for the mRNA and western blot measurements. The cells were cultured for two weeks in Williams E Medium with GlutaMAX™ (Invitrogen, Paisley, UK) supplemented with 10% fetal bovine serum, 2 mM glutamine, 100 IU/mL penicillin, 100 μg/mL streptomycin, 5 μg/mL insulin, and 50 μM hydrocortisone hemisuccinate. The cells were afterwards cultured for another 2-week period in the same medium supplemented with 1.7% DMSO. The medium was replaced every 2–3 days.
# Lactate dehydrogenase (LDH) leakage was measured using the Invitrogen™ CyQUANT™ LDH Cytotoxicity Assay Kit according to the manufacturer guidelines using 96-well plates. After 24 and 72-h exposure, the culture medium was collected and diluted ten times by distilled water. Fifty µL of reaction mixture was added to each sample well and mixed. After 30 min of incubation at room temperature, 50 µL of stop solution was added to each well. To determine LDH activity, 680-nm absorbance value (background) was subtracted from the 490-nm absorbance before calculation of % cytotoxicity. Cell lysate was set as 100% of the LDH leakage.
# dHepaRG cells [2] = test: ROS production (H2DCFDA probe); assay type: cell-based, human; settings: for lowest measured concentration leading to oxidative stress: ROS production; for ROS production: various concentrations, 1, 6, 12 and 24 h, H2-DCFDA probe
# Procedure: The production of reactive oxygen species (ROS) was measured using 2′,7′-dichlorofluorescin diacetate probe (H2DCFDA). The cells were preincubated with 10 µM H2DCFDA for 30 min in the dark. Afterwards, the cells were washed with PBS and sesquiterpenes were added to a Hank’s Balanced Salt Solution (HBSS) buffer. Fluorescence was measured after 1, 6, 12, and 24 h with excitation and emission wavelengths of 490 nm and 530 nm, respectively, using the Tecan Infinite M200. Hydrogen peroxide (300 µM) served as a positive control.
# CYP3A4 mRNA = test: RT-qPCR mRNA expression in dHepaRG cells; settings: single exposure, also at other than toxic concentrations
# Procedure: The mRNA and protein expression changes were measured after a single administration of ALA and GER. Three concentrations were selected for each compound (non-toxic, non-toxic/slightly toxic and toxic). The cholesterol level of the dHepaRG cells was measured after a multiple exposure of the highest non-toxic concentrations of tested compounds. ATL (30 µM) and GER (100 µM) were administered four times every 24 h. The expression changes of genes and proteins related to cholesterol metabolism were measured in both single and multiple exposure experiments.
# All treatments were performed in triplicates and every experiment was performed three times. The cells were washed twice with ice cold phosphate-buffered saline (PBS), scrapped and stored at −80 °C until use. […] The measurement of absorbance at 260 and 280 nm using the NanoDrop ND-1000 UV–VIS Spectrophotometer (Thermo Fisher Scientific, Pardubice, Czech Republic) was used to determine RNA yields and purity. […] Fluorescence data were recorded at the end of each amplification step. Relative expression levels of the target genes were calculated as fold changes in triplicates for each group using the 2^−ΔΔCt method by normalization to the geometric mean of the Ct values of Sdha and Ywhaz, which were used as reference genes.
# TFRC mRNA = test: RT-qPCR mRNA expression in dHepaRG cells; assay type: cell-based, human; settings: single exposure, also at other than toxic concentrations
# Procedure: Three concentrations were selected for each compound (non-toxic, non-toxic/slightly toxic and toxic). […] The expression changes of genes and proteins related to cholesterol metabolism were measured in both single and multiple exposure experiments.
# (§1) All treatments were performed in triplicates and every experiment was performed three times. The cells were washed twice with ice cold phosphate-buffered saline (PBS), scrapped and stored at −80 °C until use. Total RNA from cells was isolated using TriReagent according to the manufacturer’s instructions (Biotech, Prague, Czech Republic). The purified RNA was dissolved in 40 µL of diethyl pyrocarbonate (DEPC)-treated water (0.01% DEPC in HPLC water, autoclaved) and stored at −80 °C. The measurement of absorbance at 260 and 280 nm using the NanoDrop ND-1000 UV–VIS Spectrophotometer (Thermo Fisher Scientific, Pardubice, Czech Republic) was used to determine RNA yields and purity. […] Fluorescence data were recorded at the end of each amplification step. Relative expression levels of the target genes were calculated as fold changes in triplicates for each group using the 2^−ΔΔCt method [28] by normalization to the geometric mean of the Ct values of Sdha and Ywhaz, which were used as reference genes.
# FASN mRNA = test: RT-qPCR mRNA expression in dHepaRG cells; assay type: cell-based, human; settings: single exposure, 6, 12 and 24 h
# Procedure: Three concentrations were selected for each compound (non-toxic, non-toxic/slightly toxic and toxic). The cholesterol level of the dHepaRG cells was measured after a multiple exposure of the highest non-toxic concentrations of tested compounds. […] The expression changes of genes and proteins related to cholesterol metabolism were measured in both single and multiple exposure experiments.
# as §1
# ACACB mRNA = test: RT-qPCR mRNA expression in dHepaRG cells; assay type: cell-based, human; settings: single exposure, 6, 12 and 24 h
# Procedure: (§2) All treatments were performed in triplicates and every experiment was performed three times. The cells were washed twice with ice cold phosphate-buffered saline (PBS), scrapped and stored at −80 °C until use. Total RNA from cells was isolated using TriReagent according to the manufacturer’s instructions (Biotech, Prague, Czech Republic). The purified RNA was dissolved in 40 µL of diethyl pyrocarbonate (DEPC)-treated water (0.01% DEPC in HPLC water, autoclaved) and stored at −80 °C. The measurement of absorbance at 260 and 280 nm using the NanoDrop ND-1000 UV–VIS Spectrophotometer (Thermo Fisher Scientific, Pardubice, Czech Republic) was used to determine RNA yields and purity. Subsequently, the RNA (4 µg) was treated with 2 U of DNase I (New England Biolabs, Ipswich, MA, USA) in a final volume of 30 µL for 25 min at 37 °C, 1.5 µL of 0.1 M ethylenediaminetetraacetic acid was added and the DNAse was inactivated by heat (5 min at 75 °C). […] Fluorescence data were recorded at the end of each amplification step. Relative expression levels of the target genes were calculated as fold changes in triplicates for each group using the 2^−ΔΔCt method [28] by normalization to the geometric mean of the Ct values of Sdha and Ywhaz, which were used as reference genes.
# GPAM mRNA = test: RT-qPCR mRNA expression in dHepaRG cells; assay type: cell-based, human; settings: single exposure, 6, 12 and 24 h
# Procedure: as §2
# dHepaRG cells [3] = test: Cholesterol level (Amplex Red Cholesterol Assay kit); assay type: cell-based, human; settings: multiple exposure: four applications every 24 h, cells collected 12 h after the last; 30 μM ATL, 100 μM GER
# Procedure: The cholesterol content in the dHepaRG cells was tested using the Amplex Red Cholesterol Assay kit (Invitrogen) according to the manufacturer’s instructions and as per An et al.. The cells were collected 12 h after the last exposure of the tested compounds in a 4-day exposure with a medium change every 24 h. The cells were rinsed three times in PBS to eliminate residual growth medium. Whole cell extracts were prepared by 0.5 mL of RIPA lysis buffer (0.5% sodium deoxycholate, 0.1% SDS, 1% NP-40, 150 mM NaCl, 1 mM DTT, 50 mM Tris–HCl (pH = 7.4) and phenylmethanesulfonyl fluoride. Fluorescence was measured using a microplate reader (Tecan Infinite M200) at 530 nm excitation and 590 nm emission wavelengths. The total cholesterol (TC) content was determined by measuring the cholesterol concentration following digestion with cholesterol esterase (CE). To measure the free cholesterol (FC), CE was omitted from the assay. Three independent experiments were performed. The values obtained from a cholesterol standard curve were normalized to protein content, measured by a BCA assay.
SMILES,IC50 (dHepaRG cells [1]; 24 h single exposure),IC50 (dHepaRG cells [1]; 72 h single exposure),lowest measured concentration leading to oxidative stress (dHepaRG cells [2]),ROS production (dHepaRG cells [2]),CYP3A4 mRNA expression (CYP3A4 mRNA),TFRC mRNA expression (TFRC mRNA),FASN mRNA level (FASN mRNA),ACACB mRNA level (ACACB mRNA),GPAM mRNA level (GPAM mRNA),level of free cholesterol and esterified cholesterol (dHepaRG cells [3])
"C=C1C(=O)O[C@@H]2C[C@@]3(C)CCC[C@H](C)C3=C[C@H]12 [ATL, alantolactone]",61.1 ± 1.8 µM,57.8 ± 2 µM,20 µM,significant time- and concentration-dependent enhancement of ROS production,induced,inhibited,significantly decreased,significantly decreased,significantly decreased,no effect was observed
"CC(C)=C1C/C=C(\C)CC/C=C(\C)CC1=O [GER, germacrone]",244 ± 15.5 µM,234 ± 13.4 µM,100 µM,significant time- and concentration-dependent enhancement of ROS production,induced,inhibited,significantly decreased,significantly decreased,significantly decreased,no effect was observed
